Results: PubChem BioAssay AID1845197 (Molecular Pharmacology Branch, DTP, NCI, 2023)

Test system: 349418-098-R tumor spheroid viability
Test: Anticancer human tumor 349418-098-R patient-derived lung adenocarcinoma cell line growth inhibition
Conditions: spheroids with HUVEC and MSC; for IC50: curve of first compound; for viability, T/C: stronger effect = lower value
Summary of the method: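 Complex spheroids of malignant cells with endothelial cells and mesenchymal stem cells; agents alone or combined, from near clinical Cmax (or 10 microM if unknown) down in half-log steps, 0.25% DMSO final.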

[1] = second compound 30 pM, first compound 0.0316 µM
[2] = second compound 30 pM, first compound 0.1 µM
[3] = second compound 30 pM, first compound 0.316 µM
[4] = second compound 30 pM, first compound 1 µM
[5] = second compound 30 pM, first compound 3.16 µM
[6] = second compound 30 pM, first compound 10 µM
[7] = second compound 94.9 pM, first compound 0.0316 µM
[8] = second compound 94.9 pM, first compound 0.1 µM
[9] = second compound 94.9 pM, first compound 0.316 µM
[10] = second compound 94.9 pM, first compound 1 µM
[11] = second compound 94.9 pM, first compound 3.16 µM
[12] = second compound 94.9 pM, first compound 10 µM
[13] = second compound 0.0003 µM, first compound 0.0316 µM
[14] = second compound 0.0003 µM, first compound 0.1 µM
[15] = second compound 0.0003 µM, first compound 0.316 µM
[16] = second compound 0.0003 µM, first compound 1 µM
[17] = second compound 0.0003 µM, first compound 3.16 µM
[18] = second compound 0.0003 µM, first compound 10 µM
[19] = second compound 0.000949 µM, first compound 0.0316 µM
[20] = second compound 0.000949 µM, first compound 0.1 µM
[21] = second compound 0.000949 µM, first compound 0.316 µM
[22] = second compound 0.000949 µM, first compound 1 µM
[23] = second compound 0.000949 µM, first compound 3.16 µM
[24] = second compound 0.000949 µM, first compound 10 µM
[25] = second compound 0.003 µM, first compound 0.0316 µM
[26] = second compound 0.003 µM, first compound 0.1 µM
[27] = second compound 0.003 µM, first compound 0.316 µM
[28] = second compound 0.003 µM, first compound 1 µM
[29] = second compound 0.003 µM, first compound 3.16 µM
[30] = second compound 0.003 µM, first compound 10 µM
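Also: spheroids exposed to compound for 7 days before measurement.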
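For viability, T/C in this document: percent of vehicle control viability with 100% = DMSO-treated spheroids.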

Structure (SMILES)	IC50 (second compound 30 pM)	IC50 (second compound 94.9 pM)	IC50 (second compound 0.0003 µM)	IC50 (second compound 0.000949 µM)	IC50 (second compound 0.003 µM)	viability, T/C [1]	viability, T/C [2]	viability, T/C [3]	viability, T/C [4]	viability, T/C [5]	viability, T/C [6]	viability, T/C [7]	viability, T/C [8]	viability, T/C [9]	viability, T/C [10]	viability, T/C [11]	viability, T/C [12]	viability, T/C [13]	viability, T/C [14]	viability, T/C [15]	further results
CC1COCCN1c1cc(-c2ccnn2C)c2ccnc(-c3ccn[nH]3)c2n1 (stereo not given) + COc1cc2c(cc1O)CCNC21CSC2c3c(OC(C)=O)c(C)c4c(c3C(COC1=O)N1C(O)C3Cc5cc(C)c(OC)c(O)c5C(C21)N3C)OCO4	63.1 nM	36.5 nM	< 31.6 nM	< 31.6 nM	< 31.6 nM	88.5%	24.3%	13.4%	12.1%	12.2%	11.8%	54.9%	16.2%	9.93%	10.6%	12.4%	10.6%	12%	4.5%	5.77%	viability, T/C [16]: 6.89%; viability, T/C [17]: 7.2%; viability, T/C [18]: 7.37%; viability, T/C [19]: 0.38%; viability, T/C [20]: 0.68%; viability, T/C [21]: 0.46%; viability, T/C [22]: 0.39%; viability, T/C [23]: 0.25%; viability, T/C [24]: 0.23%; viability, T/C [25]: 1.52%; viability, T/C [26]: 1.22%; viability, T/C [27]: 1.66%; viability, T/C [28]: 1.39%; viability, T/C [29]: 1.43%; viability, T/C [30]: 1.5%
COc1cc(C)[nH]c(=O)c1CN1CCc2c(Cl)cc(C(OC)C3COC3)c(Cl)c2C1=O (stereo not given) + COc1cc2c(cc1O)CCNC21CSC2c3c(OC(C)=O)c(C)c4c(c3C(COC1=O)N1C(O)C3Cc5cc(C)c(OC)c(O)c5C(C21)N3C)OCO4	> 10000 nM	> 10000 nM	> 10000 nM	< 31.6 nM	< 31.6 nM	112%	106%	96.1%	97.2%	94.2%	93.3%	112%	111%	102%	99.2%	90.8%	95.8%	95.4%	85.8%	84.3%	viability, T/C [16]: 79.9%; viability, T/C [17]: 64%; viability, T/C [18]: 53.1%; viability, T/C [19]: 0.28%; viability, T/C [20]: 0.39%; viability, T/C [21]: 0.45%; viability, T/C [22]: 0.46%; viability, T/C [23]: 0.29%; viability, T/C [24]: 0.33%; viability, T/C [25]: 1.45%; viability, T/C [26]: 1.46%; viability, T/C [27]: 1.03%; viability, T/C [28]: 1.48%; viability, T/C [29]: 1.6%; viability, T/C [30]: 2.3%
Cc1cc(C)c(CNC(=O)c2cc(-c3ccc(CN4CCOCC4)cc3)cc3c2cnn3C2CCCC2)c(=O)[nH]1 + COc1cc2c(cc1O)CCNC21CSC2c3c(OC(C)=O)c(C)c4c(c3C(COC1=O)N1C(O)C3Cc5cc(C)c(OC)c(O)c5C(C21)N3C)OCO4	> 10000 nM	> 10000 nM	> 10000 nM	< 31.6 nM	< 31.6 nM	103%	97.3%	105%	119%	114%	104%	104%	97.9%	102%	118%	115%	77.7%	98.4%	90.4%	98.1%	viability, T/C [16]: 100%; viability, T/C [17]: 98.6%; viability, T/C [18]: 72.6%; viability, T/C [19]: 0.39%; viability, T/C [20]: 0.81%; viability, T/C [21]: 0.5%; viability, T/C [22]: 0.48%; viability, T/C [23]: 0.45%; viability, T/C [24]: 0.53%; viability, T/C [25]: 1.51%; viability, T/C [26]: 1.6%; viability, T/C [27]: 1.61%; viability, T/C [28]: 1.74%; viability, T/C [29]: 2.05%; viability, T/C [30]: 0.75%
[2H]c1nc(C)nc([2H])c1-c1cc(NC[C@@H](C)c2cccc3c(C(=O)NC)ccnc23)ncn1 + COc1cc2c(cc1O)CCNC21CSC2c3c(OC(C)=O)c(C)c4c(c3C(COC1=O)N1C(O)C3Cc5cc(C)c(OC)c(O)c5C(C21)N3C)OCO4	> 10000 nM	> 10000 nM	> 10000 nM	< 31.6 nM	< 31.6 nM	110%	98.4%	111%	107%	98.2%	105%	99%	99.5%	94.2%	107%	103%	98.7%	96.1%	93.7%	92.7%	viability, T/C [16]: 93.6%; viability, T/C [17]: 88%; viability, T/C [18]: 86.2%; viability, T/C [19]: 0.58%; viability, T/C [20]: 0.76%; viability, T/C [21]: 0.46%; viability, T/C [22]: 0.58%; viability, T/C [23]: 0.39%; viability, T/C [24]: 0.49%; viability, T/C [25]: 1.52%; viability, T/C [26]: 1.57%; viability, T/C [27]: 1.35%; viability, T/C [28]: 1.29%; viability, T/C [29]: 1.6%; viability, T/C [30]: 2.34%
